Assay results taken from patent US20220315578A1, “BRD9 BIFUNCTIONAL DEGRADERS AND THEIR METHODS OF USE” (NOVARTIS AG, priority 2019, published 2022).

Target: T1, BRD9-GFP (Homo sapiens, UniProt Q9H8M2)
T1 construct: CHYSEL (2A cis-acting hydrolase element) remnant after GFP; mCherry is split off as a separate protein (C); expressed in transfected cells; host or cells: HEK293A cells (Invitrogen R70507), lentiviral transduction with pLenti6-BRD9-GFP-CHYSEL-mCherry, blasticidin selection
T1 sequence (Q9H8M2 1-597): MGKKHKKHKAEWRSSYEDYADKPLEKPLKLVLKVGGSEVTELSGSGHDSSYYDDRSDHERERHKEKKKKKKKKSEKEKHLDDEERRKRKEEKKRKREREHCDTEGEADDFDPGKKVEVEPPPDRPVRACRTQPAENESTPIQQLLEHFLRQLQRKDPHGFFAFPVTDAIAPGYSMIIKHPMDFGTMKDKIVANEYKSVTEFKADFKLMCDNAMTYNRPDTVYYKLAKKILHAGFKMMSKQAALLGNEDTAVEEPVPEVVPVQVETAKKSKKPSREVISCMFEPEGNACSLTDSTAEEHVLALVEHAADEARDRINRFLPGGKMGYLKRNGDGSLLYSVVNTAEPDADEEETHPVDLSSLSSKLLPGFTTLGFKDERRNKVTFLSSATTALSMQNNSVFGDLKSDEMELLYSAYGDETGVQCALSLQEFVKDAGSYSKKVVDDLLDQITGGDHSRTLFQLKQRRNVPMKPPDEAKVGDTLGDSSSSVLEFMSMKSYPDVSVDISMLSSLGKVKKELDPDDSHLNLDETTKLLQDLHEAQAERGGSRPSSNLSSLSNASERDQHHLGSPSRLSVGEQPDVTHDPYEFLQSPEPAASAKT
Experiment: BRD9-GFP protein abundance flow cytometry assay in HEK293A cells
Type: cell-based
Conditions: HEK293A-BRD9-GFP-CHYSEL-mCherry cells; for BRD9 Deg Amax %: 24 h, % protein remaining at the concentration at which maximum degradation is seen; for DC50: 24 h at 37° C., 10-point 1:3 dilution, concentration at which 50% maximal degradation was observed
In short: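 HEK293A cells stably express bicistronic BRD9-GFP-CHYSEL-mCherry and received 24 h treatment at 37° C with a 10-point, 3-fold dilution series from […], in 0.1% DMSO and duplicate. Median GFP/mCherry ratio of 5,000 single cells by flow cytometry, normalized to mCherry-only cells (0%) and DMSO (100%), gave DC50 and Amax (% protein remaining).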

With COc1cc(-c2cn(C)c(=O)c3cnccc23)cc(F)c1CN1CCC(OC2CCN(CCn3cccc(CN4CCC(=O)NC4=O)c3=O)CC2)CC1 [Compound E24, 1-((1-(2-(4-((1-(2-fluoro-6-methoxy-4-(2-methyl-1-oxo-1,2-dihydro-2,7-naphthyridin-4-yl)benzyl)piperidin-4-yl)oxy)piperidin-1-yl)ethyl)-2-oxo-1,2-dihydropyridin-3-yl)methyl)dihydropyrimidine-2,4(1H,3H)-dione] the “BRD9 Deg Amax %” value was 17.08% and the DC50 was 42 nM.

CCCCn1cc(-c2cc(F)c(OC3CCN(CC4CCN(C(=O)c5ccc(OC)c(N6CCC(=O)NC6=O)c5)CC4)CC3)c(F)c2)c2ccncc2c1=O [Compound E49, 1-(5-(4-((4-(4-(2-butyl-1-oxo-1,2-dihydro-2,7-naphthyridin-4-yl)-2,6-difluorophenoxy)piperidin-1-yl)methyl)piperidine-1-carbonyl)-2-methoxyphenyl)dihydropyrimidine-2,4(1H,3H)-dione] was tested, and the “BRD9 Deg Amax %” value was 19.41% and the DC50 was 7 nM.

In the case of COc1cc(-c2cn(C)c(=O)c3cnccc23)c(OC)cc1CN1CCC(OC2CCN(C(=O)COc3ccc(N4CCC(=O)NC4=O)cc3)CC2)CC1 [Compound E46, 1-(4-(2-(4-((1-(2,5-dimethoxy-4-(2-methyl-1-oxo-1,2-dihydro-2,7-naphthyridin-4-yl)benzyl)piperidin-4-yl)oxy)piperidin-1-yl)-2-oxoethoxy)phenyl)dihydropyrimidine-2,4(1H,3H)-dione], the “BRD9 Deg Amax %” value is reported as 15.69% and the DC50 is reported as 33 nM.
